The results in this text go back to ChEMBL document CHEMBL1132407, “Combinatorial library of serine and cysteine protease inhibitors that interact with both the S and S' binding sites” (J Med Chem, 1999).

The Ki is the dissociation constant of the complex between target and ligand, obtained from inhibition or displacement. A higher Ki goes with a looser hold on the target.

Experiment [1] concerns the target T1, Papain (Carica papaya, UniProt P00784).
T1 sequence (P00784 whole entry): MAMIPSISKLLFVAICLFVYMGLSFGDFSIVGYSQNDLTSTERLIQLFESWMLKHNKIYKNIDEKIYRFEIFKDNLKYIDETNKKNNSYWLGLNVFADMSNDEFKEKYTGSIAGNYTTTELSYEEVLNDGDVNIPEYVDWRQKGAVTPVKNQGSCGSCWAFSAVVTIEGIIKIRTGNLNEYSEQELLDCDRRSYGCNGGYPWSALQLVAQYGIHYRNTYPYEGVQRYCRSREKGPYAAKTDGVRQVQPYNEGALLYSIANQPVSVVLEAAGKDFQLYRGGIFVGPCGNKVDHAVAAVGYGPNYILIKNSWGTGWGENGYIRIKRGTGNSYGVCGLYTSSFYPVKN
Nature of the experiment: Inhibitory activity against papain.

The target in experiment [2] is Plasminogen (Homo sapiens, UniProt P00747). Nature of the experiment: Inhibitory activity against plasmin.
Chain of Plasminogen (P00747 97-580 limits assumed): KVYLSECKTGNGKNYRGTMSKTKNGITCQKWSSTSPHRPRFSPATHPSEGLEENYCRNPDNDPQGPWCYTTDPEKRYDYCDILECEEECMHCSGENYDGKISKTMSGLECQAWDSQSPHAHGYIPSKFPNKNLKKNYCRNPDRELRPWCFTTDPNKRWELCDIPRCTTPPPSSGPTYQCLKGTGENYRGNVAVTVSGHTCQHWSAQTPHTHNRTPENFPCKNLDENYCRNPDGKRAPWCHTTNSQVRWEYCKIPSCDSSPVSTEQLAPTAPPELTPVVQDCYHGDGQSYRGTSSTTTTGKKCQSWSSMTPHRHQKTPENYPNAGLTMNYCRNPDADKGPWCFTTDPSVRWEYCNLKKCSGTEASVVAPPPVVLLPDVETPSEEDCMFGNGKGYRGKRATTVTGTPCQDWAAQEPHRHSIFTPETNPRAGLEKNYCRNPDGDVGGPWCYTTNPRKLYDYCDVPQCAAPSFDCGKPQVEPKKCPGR
Chain of Plasminogen (P00747 581-810 limits assumed): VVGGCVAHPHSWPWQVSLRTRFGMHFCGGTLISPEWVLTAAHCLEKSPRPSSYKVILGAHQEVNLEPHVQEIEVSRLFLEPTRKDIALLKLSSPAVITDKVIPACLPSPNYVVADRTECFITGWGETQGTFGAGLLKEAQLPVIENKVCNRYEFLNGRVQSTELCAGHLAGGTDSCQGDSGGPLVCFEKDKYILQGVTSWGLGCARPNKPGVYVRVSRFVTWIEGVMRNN
Experiment [3] addresses Cathepsin B (Homo sapiens, UniProt P07858). Nature of the experiment: Inhibitory activity against Cathepsin B.

For `O=C(CC[C@H]1CCC[C@@H](NC(=O)[C@H](Cc2ccccc2)NC(=O)OCc2ccccc2)C1=O)N[C@@H](Cc1c[nH]c2ccccc12)C(=O)O`, the Ki in experiment [1] was found to be 490 µM; in experiment [2] it was 420 µM. As for `O=C(CC[C@H]1CCC[C@@H](NC(=O)[C@H](Cc2ccccc2)NC(=O)OCc2ccccc2)C1=O)N[C@@H](Cc1ccccc1)C(=O)O`, the Ki in experiment [3] was determined as 1100 µM; in experiment [1] it was 870 µM; in experiment [2] it was 3000 µM.

In the case of `O=C(CC[C@H]1CCC[C@@H](NC(=O)[C@H](Cc2c[nH]c3ccccc23)NC(=O)OCc2ccccc2)C1=O)N[C@@H](Cc1c[nH]c2ccccc12)C(=O)O` (stereo in doubt), in experiment [2], the Ki was 10 µM.

Take `O=C(CC[C@H]1CCC[C@@H](NC(=O)[C@H](Cc2c[nH]c3ccccc23)NC(=O)OCc2ccccc2)C1=O)N[C@@H](Cc1c[nH]c2ccccc12)C(=O)O` (stereo in doubt; 15A): the Ki in experiment [1] was 380 µM; in experiment [2] it was 5 µM. For `O=C(CC[C@H]1CCC[C@@H](NC(=O)[C@H](Cc2c[nH]c3ccccc23)NC(=O)OCc2ccccc2)C1=O)N[C@@H](Cc1ccccc1)C(=O)O` (stereo in doubt; 16A) the same measures were 250 µM and 100 µM. In experiment [2], `O=C(CC[C@H]1CCC[C@@H](NC(=O)[C@H](Cc2c[nH]c3ccccc23)NC(=O)OCc2ccccc2)C1=O)N[C@@H](Cc1ccccc1)C(=O)O` (stereo in doubt; 16B) returned a Ki of 150 µM.
